Patent US12264159B2, “Functionalized heterocycles as antiviral agents” (Enanta Pharmaceuticals, Inc., priority 2018, dated 2025)

Assays:
[1] = Compound induced cellular toxicity in HepG2 cells, ATPlite 1Step; format: cell-based; conditions: human, three days exposure, 50% reduction of total ATP vs no drug controls
Protocol: At day 3, post seeding cells are treated with ATPlite 1Step according to the manufacturer's instructions.

HBV in 2.2.15 cells = assay: 2.2.15 cells: viral product in cell lysates quantified via quantitative real time PCR; format: cell-based, hepatitis B virus (HBV); conditions: Hepatitis B virus, 120 h, day 5 post treatment, 50% reduction of viral product vs no drug controls, readout (qPCR, HBsAg or HBeAg) not specified for the column
Protocol: 2.2.15 cells are passaged upon attaining confluency in DMEM/F12 media in the presence of 10% FBS, Penn/Strep, and 250 ug/mL G418. Novel compounds are 5 fold serially diluted in DMSO and added to 96 well plates containing 35,000 cells/well at a 1:200 dilution so that the final concentration of DMSO is 0.5%. On day 5, post treatment cell lysates and supernatants are harvested for analysis.
Cells are lysed using Agilent Sidestep Lysis buffer, diluted 1:100 and quantified via quantitative real time PCR. Commercially available ELISA kits are used to quantitate the viral proteins HBsAg (Alpco) or HBeAg (US Biological) by following the manufacturer's recommended protocol after diluting samples to match the linear range of their respective assays. Irrespective of readout, compound concentrations that reduce viral product accumulation in the cell lysates or supernatants by 50% relative to no drug controls (EC50) are reported; EC50 ranges are as follows: A<0.1 μM; B 0.2-1 μM; C>1 μM.

SMILES	CC50 at 3 days [1]	EC50 (HBV in 2.2.15 cells)
CC(C)(C)[C@@H]1Cn2nc(C3CC3)c(-c3ccccc3F)c2-c2cc(=O)c(C(=O)O)cn21 [Example 148, (R)-6-(tert-butyl)-2-cyclopropyl-1-(2-fluorophenyl)-10-oxo-5,6-dihydro-10H-pyrazolo[1,5-a]pyrido[2,1-c]pyrazine-9-carboxylic acid]	> 25000 nM	< 100 nM
CC(C)(C)[C@@H]1Cn2nc(-c3c(F)cccc3Cl)cc2-c2cc(=O)c(C(=O)O)cn21 [Example 65, (R)-6-(tert-butyl)-2-(2-chloro-6-fluorophenyl)-10-oxo-5,6-dihydro-10H-pyrazolo[1,5-a]pyrido[2,2-c]pyrazine-12-carboxylic acid]	> 25000 nM	< 100 nM
CNc1ncc(-c2cc3n(n2)C[C@@H](C(C)(C)C)n2cc(C(=O)O)c(=O)cc2-3)cn1 [Example 14, (R)-6-(tert-butyl)-2-(2-(methylamino)pyrimidin-5-yl)-10-oxo-5,6-dihydro-10H-pyrazolo[1,5-a]pyrido[2,2-c]pyrazine-12-carboxylic acid]	> 25000 nM	200 to 1000 nM
CC(C)(C)[C@@H]1Cn2nc(-c3ccc4c(c3F)OCO4)cc2-c2cc(=O)c(C(=O)O)cn21 [Example 55, (R)-6-(tert-butyl)-2-(4-fluorobenzo[d][1,3]dioxol-5-yl)-10-oxo-5,6-dihydro-10H-pyrazolo[1,5-a]pyrido[2,2-c]pyrazine-12-carboxylic acid]	> 25000 nM	< 100 nM
O=C(O)c1cn2c(cc1=O)-c1c(-c3cccc(F)c3)c(-c3cccc(F)c3)nn1CC2 [Example 201, 1,2-bis(3-fluorophenyl)-10-oxo-5,6-dihydro-10H-pyrazolo[1,5-a]pyrido[2,1-c]pyrazine-9-carboxylic acid]	> 25000 nM	< 100 nM
CC(C)(C)[C@@H]1Cn2ncc(-c3cccc(F)c3)c2-c2cc(=O)c(C(=O)O)cn21 [Example 103, (R)-6-(tert-butyl)-1-(3-fluorophenyl)-10-oxo-5,6-dihydro-10H-pyrazolo[1,5-a]pyrido[2,1-c]pyrazine-9-carboxylic acid]	> 25000 nM	< 100 nM
COc1ccc(-c2cc3n(n2)C[C@@H](C(C)(C)C)n2cc(C(=O)O)c(=O)cc2-3)cc1 [Example 10, (R)-6-(tert-butyl)-2-(4-methoxyphenyl)-10-oxo-5,6-dihydro-10H-pyrazolo[1,5-a]pyrido[2,2-c]pyrazine-12-carboxylic acid]	> 25000 nM	< 100 nM
O=C(O)c1cn2c(cc1=O)-c1c(-c3ccccc3)c(-c3ccccc3)nn1CC2 [Example 199, 10-oxo-1,2-diphenyl-5,6-dihydro-10H-pyrazolo[1,5-a]pyrido[2,1-c]pyrazine-9-carboxylic acid]	> 25000 nM	< 100 nM
Cn1cc(-c2cc3n(n2)C[C@@H](C(C)(C)C)n2cc(C(=O)O)c(=O)cc2-3)cn1 [Example 5, (R)-6-(tert-butyl)-2-(2-methyl-1H-pyrazol-4-yl)-10-oxo-5,6-dihydro-10H-pyrazolo[1,5-a]pyrido[2,2-c]pyrazine-12-carboxylic acid]	> 25000 nM	< 100 nM
CC(C)[C@@H]1Cn2nc(C3CC3)c(-c3ccc(F)cc3)c2-c2cc(=O)c(C(=O)O)cn21 [Example 133, (R)-2-cyclopropyl-1-(4-fluorophenyl)-6-isopropyl-10-oxo-5,6-dihydro-10H-pyrazolo[1,5-a]pyrido[2,1-c]pyrazine-9-carboxylic acid]	> 25000 nM	< 100 nM
CC(C)(C)[C@@H]1Cn2nc(-c3cc(F)ccc3C#N)cc2-c2cc(=O)c(C(=O)O)cn21 [Example 42, (R)-6-(tert-butyl)-2-(2-cyano-5-fluorophenyl)-10-oxo-5,6-dihydro-10H-pyrazolo[1,5-a]pyrido[2,2-c]pyrazine-12-carboxylic acid]	> 25000 nM	< 100 nM
CC(C)(C)[C@@H]1Cn2ncc(-c3ccc(F)c(F)c3)c2-c2cc(=O)c(C(=O)O)cn21 [Example 110, (R)-6-(tert-butyl)-1-(3,4-difluorophenyl)-10-oxo-5,6-dihydro-10H-pyrazolo[1,5-a]pyrido[2,1-c]pyrazine-9-carboxylic acid]	< 10000 nM	< 100 nM
CC(C)(C)[C@@H]1Cn2ncc(-c3ccoc3)c2-c2cc(=O)c(C(=O)O)cn21 [Example 102, (R)-6-(tert-butyl)-1-(furan-3-yl)-10-oxo-5,6-dihydro-10H-pyrazolo[1,5-a]pyrido[2,1-c]pyrazine-9-carboxylic acid]	> 25000 nM	< 100 nM
CC(C)(C)[C@@H]1Cn2nc(C3CC3)c(-c3cc(F)ccc3F)c2-c2cc(=O)c(C(=O)O)cn21 [Example 155, (R)-6-(tert-butyl)-2-cyclopropyl-1-(2,5-difluorophenyl)-10-oxo-5,6-dihydro-10H-pyrazolo[1,5-a]pyrido[2,1-c]pyrazine-9-carboxylic acid]	> 25000 nM	< 100 nM
CC(C)(C)[C@@H]1Cn2nc(-c3ccc(F)c4c3OCO4)cc2-c2cc(=O)c(C(=O)O)cn21 [Example 22, (R)-6-(tert-butyl)-2-(7-fluorobenzo[d][1,3]dioxol-4-yl)-10-oxo-5,6-dihydro-10H-pyrazolo[1,5-a]pyrido[2,2-c]pyrazine-12-carboxylic acid]	> 25000 nM	< 100 nM
CC(C)(C)[C@@H]1Cn2nc(C3CC3)c(-c3ccccc3)c2-c2cc(=O)c(-c3ncn[nH]3)cn21 [Example 195, (R)-6-(tert-butyl)-2-cyclopropyl-1-phenyl-9-(1H-1,2,4-triazol-5-yl)-5,6-dihydro-10H-pyrazolo[1,5-a]pyrido[2,1-c]pyrazin-10-one]	> 25000 nM	< 100 nM
CC(C)(C)[C@@H]1Cn2nc(C3CC3)c(-c3ccoc3)c2-c2cc(=O)c(C(=O)O)cn21 [Example 152, (R)-6-(tert-butyl)-2-cyclopropyl-1-(furan-3-yl)-10-oxo-5,6-dihydro-10H-pyrazolo[1,5-a]pyrido[2,1-c]pyrazine-9-carboxylic acid]	> 25000 nM	< 100 nM
CCOc1cc(F)ccc1-c1cc2n(n1)C[C@@H](C(C)(C)C)n1cc(C(=O)O)c(=O)cc1-2 [Example 72, (R)-6-(tert-butyl)-2-(2-ethoxy-4-fluorophenyl)-10-oxo-5,6-dihydro-10H-pyrazolo[1,5-a]pyrido[2,2-c]pyrazine-12-carboxylic acid]	> 25000 nM	< 100 nM
CC(C)(C)[C@@H]1Cn2nc(C3CC3)c(-c3ccc(F)cc3)c2-c2cc(=O)c(-c3ncn[nH]3)cn21 [Example 196, (R)-6-(tert-butyl)-2-cyclopropyl-1-(4-fluorophenyl)-9-(1H-1,2,4-triazol-5-yl)-5,6-dihydro-10H-pyrazolo[1,5-a]pyrido[2,1-c]pyrazin-10-one]	> 25000 nM	< 100 nM
CC(C)(C)[C@@H]1Cn2nnc(-c3ccc(F)cc3)c2-c2cc(=O)c(C(=O)O)cn21 [Example 208, (R)-6-(tert-butyl)-1-(4-fluorophenyl)-10-oxo-5,6-dihydro-10H-pyrido[1,2-a][1,2,3]triazolo[5,1-c]pyrazine-9-carboxylic acid]	> 25000 nM	< 100 nM
